Experimental data reported in PubChem BioAssay (NCI).
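These data come from cells grown in 96-well plates and exposed to compound for 48 hours at five concentrations. TGI denotes the concentration required for complete inhibition of growth.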

How the values were obtained:
Test in all cases: growth of human tumour cells (NCI), 48 h
[1] = test system: RPMI-8226 leukemia
[2] = test system: K-562 leukemia
[3] = test system: SR leukemia
[4] = test system: CCRF-CEM leukemia
[5] = test system: LXFL 529 NSCLC
[6] = test system: NCI-H460 lung
[7] = test system: HCC-2998 colon
[8] = test system: SK-MEL-2 melanoma
[9] = test system: RXF-631 renal
[10] = test system: SF-268 CNS
[11] = test system: SNB-75 CNS
[12] = test system: A498 renal
[13] = test system: IGROV1 ovarian
[14] = test system: NCI-H226 lung
[15] = test system: M19-MEL melanoma
[16] = test system: HOP-62 NSCLC
[17] = test system: COLO 205 colon
[18] = test system: NCI-H23 lung
[19] = test system: SK-OV-3 ovarian
[20] = test system: SNB-78 CNS
[21] = test system: SK-MEL-28 melanoma
[22] = test system: HOP-92 NSCLC
[23] = test system: MOLT-4 leukemia
[24] = test system: ACHN renal
[25] = test system: SF-539 CNS
[26] = test system: DLD-1 colon
[27] = test system: MALME-3M melanoma
[28] = test system: 786-0 renal
[29] = test system: OVCAR-4 ovarian
[30] = test system: M14 melanoma
[31] = test system: DMS 273 small cell lung
[32] = test system: SN12C renal
[33] = test system: HL-60(TB) leukemia
[34] = test system: HCT-116 colon
[35] = test system: CAKI-1 renal
[36] = test system: UACC-62 melanoma
[37] = test system: BT-549 breast
[38] = test system: U251 CNS
[39] = test system: OVCAR-8 ovarian
[40] = test system: T-47D breast
[41] = test system: OVCAR-5 ovarian
[42] = test system: XF 498 CNS
[43] = test system: SF-295 CNS
[44] = test system: UO-31 renal
[45] = test system: SK-MEL-5 melanoma
[46] = test system: PC-3 prostate
[47] = test system: A549 NSCLC
[48] = test system: OVCAR-3 ovarian
[49] = test system: MDA-N
[50] = test system: MDA-MB-435
[51] = test system: SW-620 colon
[52] = test system: NCI-H522 lung
[53] = test system: HOP-18 NSCLC
[54] = test system: EKVX NSCLC
[55] = test system: SNB-19 CNS
[56] = test system: HS 578T breast
[57] = test system: UACC-257 melanoma
[58] = test system: HT29 colon
[59] = test system: RXF 393 renal
[60] = test system: MDA-MB-231 breast
[61] = test system: DU-145 prostate
[62] = test system: TK-10 renal
[63] = test system: DMS 114 small cell lung
[64] = test system: HCT-15 colon
[65] = test system: LOX IMVI melanoma
[66] = test system: KM20L2 colon

With `COc1cc([C@@H]2Oc3cc4oc(-c5ccccc5)cc(=O)c4c(O)c3O[C@H]2OC)ccc1O` the TGI [1] was 25.9 µM, the TGI [2] was 25.9 µM and the TGI [3] was 18.5 µM. It also gave a TGI [4] of 27.8 µM, a TGI [5] of 25.2 µM and a TGI [6] of 15.2 µM. For the same molecule, the TGI [7] was 26.5 µM, the TGI [8] was 31.2 µM and the TGI [9] was 32.6 µM. It also gave a TGI [10] of 19.7 µM, a TGI [11] of 25.1 µM and a TGI [12] of 32.3 µM. It also gave a TGI [13] of 53.1 µM, a TGI [14] of 38.4 µM and a TGI [15] of 24 µM. It also gave a TGI [16] of 26.9 µM, a TGI [17] of 50.2 µM and a TGI [18] of 32.4 µM. It also gave a TGI [19] of 34.1 µM, a TGI [20] of 38.2 µM and a TGI [21] of 16.8 µM. For the same molecule, the TGI [22] was 39.5 µM, the TGI [23] was 21.3 µM and the TGI [24] was 23.1 µM. The TGI [25] was 30.6 µM, the TGI [26] was 21.2 µM and the TGI [27] was 30.6 µM. For the same molecule, the TGI [28] was 20.8 µM, the TGI [29] was 29.1 µM and the TGI [30] was 24.7 µM. It also gave a TGI [31] of 14.4 µM, a TGI [32] of 25.5 µM and a TGI [33] of 8.08 µM. The TGI [34] was 19.6 µM, the TGI [35] was 34.4 µM and the TGI [36] was 37.7 µM.

`CC(=O)[C@]1(O)Cc2c(O)c3c(c(O)c2[C@@H](OC2CC(N)C(O)C(C)O2)C1)C(=O)c1c(OCc2ccccc2)cccc1C3=O` (stereo partly specified) was tested, and the TGI [37] was 21.2 µM, the TGI [38] was 3.97 µM and the TGI [1] was over 100 µM. For the same molecule, the TGI [2] was 2.68 µM, the TGI [3] was 0.468 µM and the TGI [4] was 1.45 µM. For the same molecule, the TGI [39] was 7.8 µM, the TGI [40] was 8.11 µM and the TGI [5] was 2.38 µM. For the same molecule, the TGI [6] was 6.31 µM, the TGI [7] was 2.63 µM and the TGI [8] was 58.4 µM. It also gave a TGI [10] of 11.7 µM, a TGI [41] of 5.12 µM and a TGI [11] of 13.8 µM. It also gave a TGI [12] of 21.8 µM, a TGI [42] of 14.5 µM and a TGI [13] of 33.8 µM. It also gave a TGI [43] of 4.05 µM, a TGI [44] of 8.79 µM and a TGI [45] of 5.84 µM. It also gave a TGI [14] of 5.74 µM, a TGI [46] of 2.64 µM and a TGI [47] of 6.93 µM. It also gave a TGI [48] of 6.87 µM, a TGI [49] of 2.98 µM and a TGI [16] of 16 µM. For the same molecule, the TGI [18] was 6.9 µM, the TGI [19] was 21.2 µM and the TGI [50] was 2.95 µM. For the same molecule, the TGI [51] was 2 µM, the TGI [52] was 5.19 µM and the TGI [20] was 36.1 µM. The TGI [21] was 2.91 µM, the TGI [53] was 3.33 µM and the TGI [22] was 22.6 µM. For the same molecule, the TGI [54] was 11.1 µM, the TGI [24] was 4.91 µM and the TGI [55] was 9.04 µM. The TGI [25] was 7.45 µM, the TGI [56] was 2.29 µM and the TGI [27] was 20.1 µM. For the same molecule, the TGI [28] was 2.16 µM, the TGI [29] was 9.36 µM and the TGI [30] was 2.89 µM. The TGI [57] was 11.1 µM, the TGI [32] was 4.65 µM and the TGI [58] was 14.7 µM. For the same molecule, the TGI [59] was 15.1 µM, the TGI [60] was 3.45 µM and the TGI [61] was 3.4 µM. For the same molecule, the TGI [34] was 1.79 µM, the TGI [35] was 12 µM and the TGI [62] was 25 µM. It also gave a TGI [63] of 2.55 µM, a TGI [36] of 5.63 µM and a TGI [64] of 2.75 µM.

For `CC(C)=CCC/C(C)=C/C=C/C(C)=C/C1C[C@@]2(C(O)O1)[C@H](CCCO)/C(=C(/C)C=O)CC[C@]2(C)O` (stereo partly specified), the TGI [65] was 28 µM, the TGI [2] was 28.4 µM and the TGI [3] was 37.2 µM. For the same molecule, the TGI [39] was 51 µM, the TGI [6] was 25.5 µM and the TGI [7] was 29.4 µM. It also gave a TGI [8] of 34.6 µM, a TGI [10] of 33.3 µM and a TGI [41] of 55.6 µM. It also gave a TGI [11] of 69.9 µM, a TGI [42] of 32.7 µM and a TGI [13] of 40.6 µM. The TGI [43] was 27.7 µM, the TGI [44] was 33.9 µM and the TGI [14] was 40.9 µM. It also gave a TGI [47] of 25 µM, a TGI [15] of 32.4 µM and a TGI [17] of 13.4 µM. For the same molecule, the TGI [51] was 27.8 µM, the TGI [52] was 36.7 µM and the TGI [20] was 42 µM. The TGI [21] was 32.3 µM, the TGI [53] was 33.4 µM and the TGI [54] was 25.1 µM. The TGI [23] was 30.8 µM, the TGI [24] was 25.2 µM and the TGI [55] was 35.4 µM. The TGI [25] was 25 µM, the TGI [26] was 44.4 µM and the TGI [27] was 22.6 µM. It also gave a TGI [66] of 29.1 µM, a TGI [30] of 32.2 µM and a TGI [31] of 7.82 µM. For the same molecule, the TGI [57] was 56.5 µM, the TGI [32] was 30.8 µM and the TGI [33] was 29 µM. It also gave a TGI [58] of 33.3 µM, a TGI [59] of 35.2 µM and a TGI [34] of 37.9 µM. For the same molecule, the TGI [35] was 25.6 µM, the TGI [62] was 62.8 µM and the TGI [63] was 27.4 µM. For the same molecule, the TGI [64] was 31 µM.
